From PubChem BioAssay (NCI)
Several values for one entry are separate records, joined by “and”; a condition that tells them apart may be missing. Identical values can stand only once.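 Growth conditions: 96-well plates. Treatment: test compound, 48 hours, 5 concentrations. Analysis: linear interpolation between bracketing concentrations; unreached endpoints set to highest concentration. Abbreviation: GI50, concentration required for 50% inhibition of growth. TGI is the concentration that stops growth completely.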 Where a SMILES comes first, the peptide text is derived from it. [ ]: non-standard residue; d: D form. The star is where a group is joined. NMeF = CN[C@@H](Cc1ccccc1)C(=O)O; NMeV = CN[C@H](C(=O)O)C(C)C; Boc = CC(C)(C)OC(=O)*; OBn = c1ccc(CO*)cc1

Legend:
Assay in all cases: NCI-60 cell line screen, 48 h
[1] = system: SN12C renal
[2] = system: NCI-H23 lung
[3] = system: M14 melanoma
[4] = system: UACC-257 melanoma
[5] = system: SR leukemia
[6] = system: NCI-H460 lung
[7] = system: SW-620 colon
[8] = system: CAKI-1 renal
[9] = system: SK-MEL-5 melanoma
[10] = system: HOP-92 NSCLC

Row | SMILES | TGI [1] [µM] | TGI [2] [µM] | TGI [3] [µM] | TGI [4] [µM] | TGI [5] [µM] | TGI [6] [µM] | TGI [7] | TGI [8] [µM] | TGI [9] [µM] | TGI [10] [µM] | GI50 [1] [µM] | GI50 [2] [µM] | GI50 [3] [µM] | GI50 [4] [µM] | GI50 [5] [µM] | GI50 [6] [µM] | GI50 [8] [µM] | GI50 [9] [µM] | GI50 [10] [µM] | GI50 [7] [µM]
1 | CN(C)C1=NC2=S(SC(Nc3ccccc3)=N2)S1 (centres undefined) | > 100 | > 100 | > 100 | 70.8 | > 100 | > 100 | > 100 µM | 60.7 | 28.8 | 59.8 | – | – | – | – | – | – | – | – | – | –
2 | COC(=O)C1=C(c2ccc3c(c2)OCO3)OC(c2ccc3c(c2)OCO3)C1 (centres undefined) | > 100 | > 100 | > 100 | > 100 | > 100 | > 100 | > 100 µM | > 100 | > 100 | > 100 | – | – | – | – | – | – | – | – | – | –
3 | Cc1cc2cc3cc(C)c(N)cc3[n+](C)c2cc1N | 10.2 | 5.11 | 4.82 | 7.5 | 8.17 | 3.26 | – | 21.6 | 2.08 | 5.99 | 0.334 | 1.09 | 1.8 | 1.05 | 1.99 | 1.01 | 3.44 | 0.762 | 1.44 | –
4 | COc1cc(/C=C2\C(=O)N(c3ccccc3)c3ccccc32)cc(OC)c1OC | 24.7 | 30.1 | 26.9 | 19.9 | 10.4 | > 100 | > 100 µM | 61.3 | 26.7 | 20.7 | 5.4 | 9.79 | 11.3 | 6.66 | 2.1 | 3.82 | 12.5 | 7.29 | 3.71 | 5.96
5 | O=C(NCCNc1nccc(-c2c(-c3ccc(F)cc3)nc3sccn23)n1)c1ccccc1 | 48.4 | 45.1 | 22.3 | 41.1 | 47.3 | 22.3 | 85.6 µM | 25.1 | 13.3 | 68.2 | 6.52 | 10.9 | 7.97 | 14.3 | 16.7 | 3.28 | 2.48 | 1.66 | 14.8 | 7.44
6 | Clc1ccc(C2=NN[C@H](c3cn(-c4ccccc4)nc3-c3ccccc3)C2)cc1 | 17.2 | 23.4 | 32.1 | 37.5 | > 100 | 16.9 | 32 µM | 44.9 | > 100 | 6.88 | 3.61 | 5.27 | 7.67 | 4.91 | 11.4 | 4.22 | 10.4 | 19 | 2.24 | 4.31
7 | Cc1ccc(-c2nc(N)c(C#N)c3c2CCOc2c-3ccc3ccccc23)cc1 | 53.9 | 66.7 | > 22.9 | > 100 | > 100 | > 46.4 | > 93.4 µM | 16.9 | 1.14 | 7.44 | 12.3 | 0.521 | 0.377 | 0.474 | 0.0882 | 0.332 | 0.171 | 0.0819 | 0.334 | 1.76
8 | COc1cccc(Cn2c(-c3nonc3NC(C)=O)nc3ccccc32)c1 | > 100 | > 100 | > 100 | 88.4 | > 100 | > 100 | > 100 µM | > 100 | > 100 | 17.6 | 5.48 | 6.42 | 4.02 | 5.71 | 4.14 | 2.45 | 2.05 | 3.76 | 2.16 | 3.08
9 | CCCCCCCCCCCCCCCCCC(=O)OCC(COC1OC(CS(=O)(=O)O)C(O)C(O)C1O)OC(=O)CCCCCCCCCCCCCCCCC (centres undefined) | > 100 | > 100 | > 100 | > 100 | 4.42 | > 100 | > 100 µM | > 100 | > 100 | > 100 | – | – | – | – | – | – | – | – | – | –
10 | CC(C)[C@@H](C(=O)N1CCC[C@H]1C(=O)OCc1ccccc1)N(C)C(=O)[C@H](C(C)C)N(C)C(=O)[C@H](Cc1ccccc1)N(C)C(=O)[C@H](NC(=O)OC(C)(C)C)C(C)C (Boc-[dV][NMeF][NMeV][NMeV]P-OBn) | > 100 | > 50 | > 100 | > 100 | > 100 | > 100 | > 50 µM and 26.7 µM | > 100 | > 100 | > 100 | – | – | 41.7 | 16.5 | – | 17.5 | > 100 | – | 20.9 | 12.5
11 | Cc1cc(C)c2nc3nc(C)cc(C)c3c(N)c2c1 | 36.2 | 21.4 | 16.1 | 29.8 | 13.3 | 11 | 21.4 µM | 6.12 | 14.2 | 19.7 | 4.37 | 5.29 | 4.53 | 5.71 | 2.47 | 3.15 | 1.83 | 3.73 | 3.23 | 3.4
12 | NC(=O)Nc1c([N+](=O)[O-])cc(C(F)(F)F)cc1[N+](=O)[O-] | > 100 | > 100 | > 100 | > 100 | > 100 | > 100 | > 100 µM | > 100 | > 100 | > 100 | – | – | – | – | – | – | – | – | – | –
13 | Cn1ccnc1C(=O)/C=C/c1ccc(CC(=O)Nc2ccc(F)cc2)cc1 | 6.26 | 8.56 | 7.95 | 21.6 | > 25 | 9.89 | 12 µM | > 25 | 8.09 | 13 | 1.62 | 3.04 | 3.23 | 6.99 | 0.517 | 1.8 | 3.14 | 4.45 | 4.51 | 1.97
14 | COc1ccc(C(=O)CC(=O)C(=O)Nc2ccc(C)c(C)c2)cc1 | > 100 | > 100 | > 100 | > 100 | > 100 | > 56.8 | > 49.2 µM | > 100 | > 100 | > 100 | – | – | – | – | – | – | – | – | – | –
